Experimental data reported in patent EP0642504B1 (priority 1991, dated 1993).
Marks after values point to notes of the source that are not given here.

How the values were obtained:
[1] = tested on: strychnine induced lethality; experiment: Protection against strychnine induced lethality; type: in vivo; settings: rats
From the text: (§1) The present compounds are active in several tests generally used to indicate neuroprotection.

[2] = tested on: forebrain ischemia (unilateral occlusion); experiment: Forebrain ischemia (unilateral occlusion); type: in vivo; settings: mongolian gerbils
From the text: as §1

peritoneal leukocytes = experiment: Leukocyte adhesion assay, peritoneal cells collected after oral dosing; type: in vivo, CD-1 mice; settings: cells collected 90 min after administration; for number of adhering cells x 10^-6 ± S.D.: 18-20 hours incubation
Method: Leukocytes are thought to be major contributors to the inflammatory response and their ability in this regard is reflected by their adhesiveness to a variety of substrates [Audette, C.A., et al., Life Sci., 47, 753 (1990)].
The details of the leukocytes adhesion assay have been previously reported [Audette et al., ibid.]. In brief, peritoneal cells from femals CD-1 mice (20-25 g) were collected at 90 min following oral administration of the drug or vehicle (50 µl peanut oil). Cells from each treatment group (N=3) were pooled and equal numbers aliquoted into six culture dish wells (1.9 cm^2 area). After incubation for 18-20 hours, non-adhering cells were removed and the remaining cell monolayer quantitated by DNA measurement.

mouse = experiment: Mouse hot plate test (55°C) for antinociception; type: in vivo
Method: In the hot plate test for analgesia an aluminum surface was maintained at 55 ± 1°C by circulating water through passages in the metal. A clear plastic cylinder 18 cm in diameter and 26 cm high was placed on the surface to prevent escape. The end point was taken when the mouse either performed a hind paw lick or jumped off the surface; in no case were the animals kept for more than 30 secs on the plate. Mice were never used more than one time; control values were always measured at 11 a.m. and test values at 2 p.m. The drugs were administered orally 90 min before the hot plate test. The percent change in response time (latency) was calculated by comparing the mean of the control values with the mean of the test values and statistical signficance determined by a paired t-test analysis using software (Statview, 512) from Brainpower, Inc., Calabasas, Ca.

[3] = Solubility in the oocyte test medium; type: physicochemical
Method: Several NMDA receptor blockers were tested. These compounds have very low solubility and have to be dissolved in 100% dimethyl sulfoxide (DMSO) and diluted for use in ND 96 that contained 1% DMSO. Therefore, the effect of 1% DMSO on the response to 10-^4 M NMDA and 5x10-^6 M glycine was examined. DMSO had no effect on NMDA response in three different cells.
The effect of HU-245 was reversible upon return to ND 96 solution.

## CCCCCCC(C)(C)c1cc(OC(C)=O)c2c(c1)OC(C)(C)[C@H]1CC=C(C(=O)O)C[C@H]21 [HU-245, (3S,4S)-THC-DMH-7-oic acid, acetate]
[1]
  protection against strychnine induced lethality: protects against strychnine induced lethality
[2]
  protection against forebrain ischemia: protect against forebrain ischemia
Peritoneal leukocytes; dose 0.05 mg/kg oral
  adhering cells, percent of control: 105% of control
  number of adhering cells x 10^-6 ± S.D.: 1.32±0.04 x 10^-6
Peritoneal leukocytes; dose 0.10 mg/kg oral
  adhering cells, percent of control: 52% of control
  number of adhering cells x 10^-6 ± S.D.: 0.66±0.05 x 10^-6
Peritoneal leukocytes; dose 0.50 mg/kg oral
  adhering cells, percent of control: 67% of control
  number of adhering cells x 10^-6 ± S.D.: 0.85±0.08 x 10^-6
Peritoneal leukocytes; dose 1.00 mg/kg oral
  adhering cells, percent of control: 24% of control
  number of adhering cells x 10^-6 ± S.D.: 0.30±0.04 x 10^-6
mouse; dose 0.025 mg/kg orally 90 min before the hot plate test
  percent change in latency: 10.7(5) percent
mouse; dose 0.050 mg/kg orally 90 min before the hot plate test
  percent change in latency: 66.2(5)* percent
mouse; dose 0.10 mg/kg orally 90 min before the hot plate test
  percent change in latency: 62.2(5)* percent
mouse; dose 0.25 mg/kg orally 90 min before the hot plate test
  percent change in latency: 68.1(10)* percent
mouse; dose 0.50 mg/kg orally 90 min before the hot plate test
  percent change in latency: 49.9(5)* percent
mouse; dose 1.0 mg/kg orally 90 min before the hot plate test
  percent change in latency: 12.5(5) percent
[3]
  solubility compared with prior art compounds: higher than that of prior art compounds
[3]; nd 96 with 1% dmso, organic solvent or mixture, ND 96 containing 1% DMSO, read-out: solubility (soluble at a concentration of up to)
  solubility: ≤ 0.1 µM
